Data on 52 molecules can be found in PubChem BioAssay AID1996.

Converted amounts (≈) assume the structure as drawn.

The conditions of the data set: buffer; pH 7.4; 200.0 µM.
Turning to `CCOC(=O)c1c(O)c2cccc3c2n(c1=O)CC3`, the solubility (kinetic) (commonly the concentration staying in solution when a stock, usually in DMSO, is diluted into the medium) was > 38.9 µg/mL.
With `O=c1[nH]c2ccc(NS(=O)(=O)c3ccc(F)c(Cl)c3)cc2[nH]1`, the kinetic solubility came out at 7.5 µg/mL (≈ 21.9 µM).
As for `CN1CCN(Cc2cc3c(cc2[N+](=O)[O-])OCO3)CC1`, the figure is 38.3 µg/mL (≈ 137 µM); as for `COc1cccc(NC(=O)c2cc(=O)c3ccccc3o2)c1`, 1.9 µg/mL (≈ 6.43 µM).
In the case of `Cc1ccc(C)c(NC(=O)NCc2ccccn2)c1`, the kinetic solubility was 35.4 µg/mL (≈ 139 µM).
In the case of `O=C(NC1CC2CCCC(C1)N2C(=O)Nc1cccc(F)c1)C1CC1` (configuration not stated), the solubility (kinetic) was determined as 16.3 µg/mL (≈ 47.2 µM).
For `O=c1cc(-c2ccc(Cl)cc2)oc(=O)[nH]1`, the solubility (kinetic) is > 33.5 µg/mL.
The value for `CC(=O)c1c(COC(=O)c2ccc(Cl)cc2)nc2ccccc2[n+]1[O-]` was 0.6 µg/mL (≈ 1.68 µM); that for `Cc1nccn1CC1CCc2c(c3ccccc3n2C)C1=O.Cl` (configuration not stated) was 47.7 µg/mL.
As for `O=C(CN1CCN(c2ccccc2F)CC1)c1ccc(O)c(O)c1`, the figure is 47.6 µg/mL (≈ 144 µM); as for `Cc1cc(C)n2nc(SCC(=O)N3CCN(c4ccccc4)CC3)nc2n1`, > 57.4 µg/mL.
The value for `CN=C1S/C(=C\c2c(OC)cc(OC)cc2OC)C(=O)N1C` was 1.1 µg/mL (≈ 3.41 µM).
As for `COc1cc(C(=O)NCC2CCCCC2)cc(OC)c1OC`, the solubility (kinetic) was determined as 12.8 µg/mL (≈ 41.6 µM).
The value for `Cc1cc(C(=O)NCC2CCCCC2)ccc1[N+](=O)[O-]` was 2.3 µg/mL (≈ 8.32 µM); that for `C#CCN1C(=O)S/C(=C\c2ccc(-c3ccc(C(=O)O)cc3C)o2)C1=O` was 35 µg/mL (≈ 95.3 µM).
The value for `CCC(=Nc1ccccc1O)C1=C(O)CC(c2ccccc2)CC1=O` (configuration not stated) was 39.7 µg/mL (≈ 118 µM); that for `COc1cccc(CN(C)C(=O)c2cc(S(=O)(=O)NC3CCCCC3)ccc2C)c1` was 45.3 µg/mL (≈ 105 µM); that for `Cc1cc(C(=O)O)c(C)n1Cc1ccncc1` was 32.2 µg/mL (≈ 140 µM).
As for `Cc1ccc(C)c(NC(=O)COC(=O)c2ccc[n+]([O-])c2)c1`, the figure is > 45 µg/mL; as for `CC1CCN(C(=O)CCN2C(=O)C3C4C=CC(C4)C3C2=O)CC1` (configuration not stated), > 47.5 µg/mL.
For `COc1cccc(C2NC(=O)CCC2[N+](=O)[O-])c1OC` (configuration not stated), the solubility (kinetic) was 39.4 µg/mL (≈ 141 µM).
As for `NC(=O)c1ccsc1NC(=O)CSc1nnc2ccccn12`, the figure is > 50 µg/mL; as for `c1ccc2c(CN3CCSCC3)cccc2c1`, 4.2 µg/mL (≈ 17.3 µM).
For the molecule `COc1ccc(NC(=O)c2ccc3c(c2)OCO3)cc1`, the kinetic solubility worked out at 3.8 µg/mL (≈ 14 µM).
The value for `Cn1ncc2c(=O)[nH]cnc21` was > 22.5 µg/mL; that for `CCc1ccc(N/C(=N/c2nc(C)cc(C)n2)NC(C)=O)cc1` was 9.2 µg/mL (≈ 29.5 µM).
The value for `O=C(Nc1cccc2ccccc12)c1ccc([N+](=O)[O-])o1` was 40.3 µg/mL (≈ 143 µM).
The value for `O=C1NC(=S)N/C1=C/c1ccc2c(c1)OCO2` was 1.5 µg/mL (≈ 6.04 µM).
`CN(CCOc1ccccc1)CC(O)COc1ccccc1` (configuration not stated) registered a solubility (kinetic) of 28.5 µg/mL (≈ 94.6 µM).
`COc1ccc(CN=C(C#N)C2=C(O)c3ccccc3C2=O)cc1`: the kinetic solubility is 0.8 µg/mL (≈ 2.51 µM).
The value for `CCSC1=N/C(=C\c2ccccc2)C(=O)N1c1ccc(OC)cc1` was < 0.4 µg/mL; that for `O=C(Nc1ccc(Cl)c(S(=O)(=O)N2CCOCC2)c1)c1cccs1` was 3.2 µg/mL (≈ 8.27 µM).
The value for `COc1ccc(CCC(=O)N2CCCc3ccccc32)cc1` was 39.1 µg/mL (≈ 132 µM); that for `O=C(NCCc1ccncc1)Nc1ccc(Cl)c(Cl)c1` was > 46.5 µg/mL; that for `O=C(C1=C(O)C(=O)N(CC2CCCO2)C1c1ccccc1)c1ccco1` (configuration not stated) was 41.8 µg/mL (≈ 118 µM).
The value for `Cc1ccc(C(C)C)c(OCC(=O)NC2CCN(C)CC2)c1` was > 45.7 µg/mL; that for `Br.Cn1ccnc1SCC(=O)c1ccc(Cl)cc1` was 48.9 µg/mL; that for `O=C(CN1C(=O)c2ccccc2S1(=O)=O)c1ccccc1F` was 17.8 µg/mL (≈ 55.7 µM).
In turn, `COc1cccc(NC(=S)N2c3ccccc3CC2C)c1` (configuration not stated) registered a solubility (kinetic) of 20.3 µg/mL (≈ 68 µM).
As for `CS(=O)(=O)N(CC(=O)N1CCCC1)c1cccc(F)c1`, the figure is 44.3 µg/mL (≈ 147 µM); as for `CC1=C(C)CC(C(=O)NCc2c(F)cccc2Cl)C(C(=O)O)C1` (configuration not stated), > 51 µg/mL.
`CC(NS(=O)(=O)c1ccc2ccccc2c1)c1ccccn1.Cl` (configuration not stated): the solubility (kinetic) is > 52.3 µg/mL.
The molecule `O=S(=O)(c1ccccc1)N1CCN(Cc2ccccc2)CC1` registered a solubility (kinetic) of 0.5 µg/mL (≈ 1.58 µM).
The value for `C=CCNC(=O)NC(=O)CSc1nnc(C(F)(F)F)n1C` was > 48.5 µg/mL; that for `CCc1noc(C)c1C(=O)OCC(=O)Nc1ccc2c(c1)OCO2` was 9.5 µg/mL (≈ 28.6 µM); that for `O=C1CC(NC(=O)C(F)(F)F)c2cc3c(cc21)OCO3` (configuration not stated) was 42.3 µg/mL (≈ 147 µM).
Consider `CCN(CC)CCOC(=O)c1ccc(Cl)cc1Cl.Cl`, for which the solubility (kinetic) was > 49 µg/mL.
Regarding `O=C(O)CCCN1C(=O)c2ccccc2Sc2ncccc21`, the kinetic solubility was > 47.2 µg/mL.
The value for `Cc1ccsc1C(=O)OCc1nc2ccsc2c(=O)[nH]1` was > 46 µg/mL; that for `Cc1ccc(N=C2C(=O)Nc3ccccc32)cc1` was 30.5 µg/mL (≈ 129 µM).
As for `O=C(Nc1cccc([N+](=O)[O-])c1)C1COc2ccccc2O1` (configuration not stated), the figure is 5.4 µg/mL (≈ 18 µM); as for `O=C(NC1CCCCC1)C1CCC(=O)N(C2CC2)C1` (configuration not stated), > 39.7 µg/mL.
